Source: publication PMC8070648, “Simultaneous Visualization of ^161Tb- and ^177Lu-Labeled Somatostatin Analogues Using Dual-Isotope SPECT Imaging” (Pharmaceutics, 2021)
Read-outs that look alike come from different tables or passages of the source.

Test: Biodistribution in AR42J tumor-bearing nude mice
Assay type: in vivo
Conditions: female, CD-1 nude, mouse, iv, 1 nmol/mouse, total radioactivity, i.v. 5 MBq; for tissue uptake at 2 h: 2 h p.i.; for tissue uptake at 24 h: 24 h p.i.
Excerpt: Five-week-old female CD-1 nude mice were purchased from Charles River Laboratories (Sulzfeld, Germany).

[1] = AR42J tumor, read-out: AR42J Tumor
[2] = femoral muscle, read-out: Muscle
[3] = intestines, read-out: Intestines

`C[C@@H](O)[C@@H]1NC(=O)[C@H](CCCCN)NC(=O)[C@@H](Cc2c[nH]c3ccccc23)NC(=O)[C@H](Cc2ccc(O)cc2)NC(=O)[C@@H](NC(=O)[C@@H](Cc2ccccc2)NC(=O)CN2CCN(CC(=O)O)CCN(CC(=O)O)CCN(CC(=O)O)CC2)CSSC[C@@H](C(=O)N[C@H](CO)[C@@H](C)O)NC1=O` [[^161Tb]Tb-DOTATOC, metal not drawn] gave a tissue uptake at 2 h [1] of 8.2 ± 0.2 %ID/g, a tissue uptake at 24 h [1] of 3.8 ± 0.6 %ID/g and a tissue uptake at 2 h (adrenals, read-out: Adrenals) of 0.25 ± 0.06 %ID/g. For the same compound, the tissue uptake at 24 h (adrenals, read-out: Adrenals) was 0.23 ± 0.2 %ID/g, the tissue uptake at 2 h (blood, read-out: Blood) was at most 0.1 %ID/g and the tissue uptake at 24 h (blood, read-out: Blood) was at most 0.1 %ID/g. The tissue uptake at 2 h [2] was at most 0.1 %ID/g, the tissue uptake at 24 h [2] was at most 0.1 %ID/g and the tissue uptake at 2 h (femur, read-out: Femur) was at most 0.1 %ID/g. The tissue uptake at 24 h (femur, read-out: Femur) was at most 0.1 %ID/g, the tissue uptake at 2 h (heart, read-out: Heart) was at most 0.1 %ID/g and the tissue uptake at 24 h (heart, read-out: Heart) was at most 0.1 %ID/g. For the same compound, the tissue uptake at 2 h [3] was 0.21 ± 0.13 %ID/g, the tissue uptake at 24 h [3] was at most 0.1 %ID/g and the tissue uptake at 2 h (kidneys, read-out: Kidneys) was 9.9 ± 1.4 %ID/g. It also gave a tissue uptake at 24 h (kidneys, read-out: Kidneys) of 5.2 ± 0.6 %ID/g, a tissue uptake at 2 h (liver, read-out: Liver) of 0.17 ± 0.01 %ID/g and a tissue uptake at 24 h (liver, read-out: Liver) of at most 0.1 %ID/g. It also gave a tissue uptake at 2 h (lung, read-out: Lung) of 0.27 ± 0.03 %ID/g, a tissue uptake at 24 h (lung, read-out: Lung) of 0.11 ± 0.01 %ID/g and a tissue uptake at 2 h (pancreas, read-out: Pancreas) of 0.71 ± 0.07 %ID/g. It also gave a tissue uptake at 24 h (pancreas, read-out: Pancreas) of 0.18 ± 0.01 %ID/g, a tissue uptake at 2 h (spleen, read-out: Spleen) of 0.11 ± 0.02 %ID/g and a tissue uptake at 24 h (spleen, read-out: Spleen) of at most 0.1 %ID/g. It also gave a tissue uptake at 2 h (stomach, read-out: Stomach) of 0.74 ± 0.38 %ID/g and a tissue uptake at 24 h (stomach, read-out: Stomach) of 0.29 ± 0.11 %ID/g.
